Tests used:
Assay type in all cases: in vivo
[1] = system: Rats (male, Sprague-Dawley); assay: Rat carrageenan-induced hyperalgesia and paw edema; conditions: 30 mg/kg, administered at the time of, or 1 h after challenge
Experimental: Representative compounds of the invention (i.e., test compounds) were administered PO, QD for 3 days prior to carrageenan injection, once at 1 h prior to carrageen, or at 5 min or 1 h post-challenge to rats (male, Sprague-Dawley). Rats received either an intraplantar injection of saline (sham) or carrageen (0.1 mL of a 2% solution [w/v]) in the right hind paw. Mechanical hyperalgesia (using an analgesymeter) and paw volume (using a digital plethysmometer) were measured at baseline (0 hr), 2, 4 and 6 h post carrageenan injection for all the animals. Celecoxib, given 1 h prior to carrageen challenge, was used as a reference standard.

[2] = system: rats (male, Wistar); assay: Complete Freund's Adjuvant (CFA) model of inflammatory pain in rats; conditions: 30 mg/kg dose
Experimental: Representative compounds of the invention (i.e., test compounds) were tested in this model of inflammatory pain. The rats (male, Wistar) were acclimatized to the instruments (plantar test surface and dynamic plantar aesthesiometer) on two consecutive days prior to the initiation of the study. On Day 0, basal paw withdrawal latency and paw withdrawal threshold were taken and animals were randomized to different groups. Complete Freund's Adjuvant (CFA) at 1 mg/mL (0.1 mL) was injected into the plantar surface of right hind paw. Test compounds (3 or 30 mg/kg) were administered PO, twice (Day 0 and Day 1) or once, on Day 1 (24 h after CFA). Thermal hyperalgesia and mechanical allodynia were assessed at 0 (baseline), 1, 3 and 6 h after administration of the test compound on Day 1. Diclofenac was used as a reference compound, given once on Day 1.

[3] = system: Mice (male, C57Bl/6); assay: Pulmonary LPS challenge assay in mice; conditions: 30 mg/kg, oral gavage once daily for three days; BALF 24 h post LPS
Experimental: Mice (male, C57Bl/6) were acclimatized for a period of about 7 days before initiation of the experiment and randomized on the day prior to treatment. Mice received vehicle or representative test compounds of the invention (i.e., test compounds) once daily for three days by oral gavage on Day −2, Day −1 and on Day 0 (the last dose being 1 h prior to LPS administration). One group of mice received the reference standard, dexamethasone, once, IP on Day 0 at 1 h prior to LPS administration. Pulmonary inflammation was induced in all animals except the sham control animals by intratracheal instillation of 20 μg LPS per animal in 50 μl saline. Sham control animals received 50 μl saline alone.
Twenty-four hours post LPS administration, animals were euthanized and the trachea was cannulated. Cold Hanks Balanced Salt Solution (HBSS) (SIGMA; Catalogue number: H1387), pH 7.2, was infused into the lungs and bronchoalveolar lavage fluid (BALF) was collected.
Total leukocyte counts were performed from the collected BALF using a mini flow-cytometer and differential counts were performed in cytospin smears stained with Leishman's staining manually. ELISA kits were used for quantification of cytokines in the BALF (TNFα, IL-1β, IL-6 and KC). Reagents, samples and standards were prepared as per kit manual. Total protein analysis in BALF samples were performed using the Biorad protein assay reagent. […]

C=C1CC[C@H]2[C@H](CN)[C@@H]([C@@]3(C)Cc4cn[nH]c4C[C@@H]3CO)CC[C@]12C [Ia-1, ((5R,6S)-5-((3aS,4R,5S,7aS)-4-(aminomethyl)-7a-methyl-1-methyleneoctahydro-1H-inden-5-yl)-5-methyl-4,5,6,7-tetrahydro-1H-indazol-6-yl)methanol]
average increase in the paw withdrawal threshold as compared to the vehicle [1]: 41% | increase in the paw withdrawal threshold [2]: 31% | % protection from neutrophilia [3]: 44%
